Source: ChEMBL document CHEMBL1148869, “Synthesis and SAR studies of potent imidazopyridine anticoccidial agents” (Bioorg Med Chem Lett, 2007)

What was measured:
[1] = system: Eimeria tenella; experiment: Anticoccidial activity against Eimeria tenella infected Chick assessed as reduction in oocyst production at 25ppm after 7 days; type: functional; set-up: scale not given: the % may be the effect or the level left
[2] = target: cGMP-dependent protein kinase (Eimeria tenella, UniProt Q8MMZ8); experiment: Inhibition of Et-PKG
[3] = system: Eimeria acervulina; experiment: Anticoccidial activity against Eimeria acervulina infected Chick assessed as reduction in oocyst production at 25 ppm after 7 days; type: functional; set-up: scale not given: the % may be the effect or the level left
[4] = system: Eimeria acervulina; experiment: Anticoccidial activity against Eimeria acervulina infected Chick assessed as reduction in oocyst production at 12.5 ppm after 7 days; type: functional; set-up: scale not given: the % may be the effect or the level left
[5] = system: Eimeria tenella; experiment: Anticoccidial activity against Eimeria tenella infected Chick assessed as reduction in oocyst production at 12.5 ppm after 7 days; type: functional; set-up: scale not given: the % may be the effect or the level left
[6] = system: Eimeria acervulina; experiment: Anticoccidial activity against Eimeria acervulina infected Chick assessed as reduction in oocyst production at 50 ppm after 7 days; type: functional; set-up: scale not given: the % may be the effect or the level left
[7] = system: Eimeria tenella; experiment: Anticoccidial activity against Eimeria tenella infected Chick assessed as reduction in oocyst production at 50 ppm after 7 days; type: functional; set-up: scale not given: the % may be the effect or the level left

Chain of cGMP-dependent protein kinase (Q8MMZ8 whole entry): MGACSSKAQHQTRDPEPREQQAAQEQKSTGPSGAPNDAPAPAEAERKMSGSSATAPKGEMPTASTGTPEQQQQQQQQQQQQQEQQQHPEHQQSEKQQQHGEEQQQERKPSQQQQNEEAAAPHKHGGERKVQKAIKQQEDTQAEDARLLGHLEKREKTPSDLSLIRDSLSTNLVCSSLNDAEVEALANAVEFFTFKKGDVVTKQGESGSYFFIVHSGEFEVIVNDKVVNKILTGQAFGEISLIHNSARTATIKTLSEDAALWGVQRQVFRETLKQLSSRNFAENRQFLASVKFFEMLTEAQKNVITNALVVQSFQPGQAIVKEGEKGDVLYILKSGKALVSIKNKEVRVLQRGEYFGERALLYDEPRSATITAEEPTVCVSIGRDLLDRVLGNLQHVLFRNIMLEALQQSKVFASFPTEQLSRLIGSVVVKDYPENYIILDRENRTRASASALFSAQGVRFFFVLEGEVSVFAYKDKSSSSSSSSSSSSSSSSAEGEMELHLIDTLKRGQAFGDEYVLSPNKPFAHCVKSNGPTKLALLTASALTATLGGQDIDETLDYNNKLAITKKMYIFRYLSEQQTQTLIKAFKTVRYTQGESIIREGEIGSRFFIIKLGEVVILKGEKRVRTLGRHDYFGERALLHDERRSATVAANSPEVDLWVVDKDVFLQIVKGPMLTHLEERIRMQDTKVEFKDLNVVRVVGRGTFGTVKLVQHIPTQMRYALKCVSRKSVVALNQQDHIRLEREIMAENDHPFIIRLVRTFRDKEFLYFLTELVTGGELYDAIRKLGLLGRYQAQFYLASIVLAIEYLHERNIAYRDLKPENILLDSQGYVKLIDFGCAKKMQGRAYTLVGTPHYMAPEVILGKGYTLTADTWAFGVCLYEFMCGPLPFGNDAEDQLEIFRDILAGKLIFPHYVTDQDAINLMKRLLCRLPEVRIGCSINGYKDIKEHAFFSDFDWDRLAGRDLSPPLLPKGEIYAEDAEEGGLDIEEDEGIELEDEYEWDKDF

SMILES	Activity [1] [%]	IC50 [2] [nM]	Activity [3] [%]	Activity [4] [%]	Activity [5] [%]	Activity [6] [%]	Activity [7] [%]
CC(C)N(C)Cc1ccn2c(-c3ccnc(NCC(C)(C)C)n3)c(-c3ccc(F)cc3)nc2c1	<50	0.6	<50				
CC(C)Nc1nccc(-c2c(-c3ccc(F)cc3)nc3cc(CN4CCC4)ccn23)n1		0.86					
CC(C)NCc1ccn2c(-c3ccnc(N[C@@H](C)c4ccccc4)n3)c(-c3ccc(F)cc3)nc2c1	>80	0.05	>80				
C[C@H](Nc1nccc(-c2c(-c3ccc(F)cc3)nc3cc(CN(C)CCCN(C)C)ccn23)n1)c1ccccc1		0.07		50	<50		
CC(C)Nc1nccc(-c2c(-c3ccc(F)cc3)nc3cc(CN(C)C(C)C)ccn23)n1		1.3					
C[C@H](Nc1nccc(-c2c(-c3ccc(F)cc3)nc3cc(CN(C)CCNS(C)(=O)=O)ccn23)n1)c1ccccc1	>80	0.15	<50				
CCOC(=O)N1CCN(Cc2ccn3c(-c4ccnc(N[C@@H](C)c5ccccc5)n4)c(-c4ccc(F)cc4)nc3c2)CC1		5.6				<50	<50
C[C@H](Nc1nccc(-c2c(-c3ccc(F)cc3)nc3cc(CN(C)C(CO)CO)ccn23)n1)c1ccccc1		0.15				<50	>80
CC(C)Nc1nccc(-c2c(-c3ccc(F)cc3)nc3cc(CN(C)C)ccn23)n1	>80	0.2	>80				
CC(C)N(C)Cc1ccn2c(-c3ccnc(NC(C)(C)C)n3)c(-c3ccc(F)cc3)nc2c1		2.8					
CN(C)Cc1ccn2c(-c3ccnc(Nc4ccccc4)n3)c(-c3ccc(F)cc3)nc2c1		0.06		<50	>80		
CN(C)Cc1ccn2c(-c3ccnc(NC(C)(C)C)n3)c(-c3ccc(F)cc3)nc2c1		0.31					
C[C@H](Nc1nccc(-c2c(-c3ccc(F)cc3)nc3cc(CN(C)CCN4CCC4)ccn23)n1)c1ccccc1		0.1				<50	>80
CN(C)Cc1ccn2c(-c3ccnc(NCC(C)(C)C)n3)c(-c3ccc(F)cc3)nc2c1	>80	0.28	<50				
C[C@H](Nc1nccc(-c2c(-c3ccc(F)cc3)nc3cc(CN(C)CCO)ccn23)n1)c1ccccc1	>80	0.11	<50				
CN(C)Cc1ccn2c(-c3ccnc(NCc4ccccc4)n3)c(-c3ccc(F)cc3)nc2c1	>80		>80				
C[C@H](Nc1nccc(-c2c(-c3ccc(F)cc3)nc3cc(CN(C)CC(=O)N4CCCC4)ccn23)n1)c1ccccc1		0.39				<50	>80
C[C@H](Nc1nccc(-c2c(-c3ccc(F)cc3)nc3cc(CN(C)CC4CCCO4)ccn23)n1)c1ccccc1 (stereo partly drawn)	>80	0.27	<50				
CC(C)N(C)Cc1ccn2c(-c3ccnc(N[C@@H](C)c4ccccc4)n3)c(-c3ccc(F)cc3)nc2c1	<50	0.11	>80				
C[C@H](Nc1nccc(-c2c(-c3ccc(F)cc3)nc3cc(CN(C)[C@@H](C)C(=O)N(C)C)ccn23)n1)c1ccccc1	50	0.26	50				
CCN(C)Cc1ccn2c(-c3ccnc(N[C@@H](C)c4ccccc4)n3)c(-c3ccc(F)cc3)nc2c1		0.13				>80	>80
C[C@H](Nc1nccc(-c2c(-c3ccc(F)cc3)nc3cc(CN(C)CC(=O)N4CCC4)ccn23)n1)c1ccccc1		0.57				<50	<50
CCN(C)Cc1ccn2c(-c3ccnc(NCC(C)(C)C)n3)c(-c3ccc(F)cc3)nc2c1	>80	0.29	<50				
CC(C)(C)CNc1nccc(-c2c(-c3ccc(F)cc3)nc3cc(CN4CCC4)ccn23)n1	<0	0.45	<0				
